Assay results from patent US8183233B2, “Stable pharmaceutical formulations” (Baxter International Inc., priority 2008, dated 2012).
Like-named read-outs stand apart in the source and are kept apart here. One block for each compound: values may come before it.

What was measured:
[1] = 10 mL concentrate in 250 mL infusion diluent, cited from earlier work
[2] = Predicted shelf-life (t90) of meropenem from degradation kinetics; type: physicochemical
Description: The stability and degradation kinetics of meropenem have been studied. Meropenem is predicted to have a shelf-life (t90) of about 0.5 day at 0° C. Extrapolated to −25° C., the predicted shelf-life is less than one month. Meropenem also polymerizes at higher drug concentration by a second-order mechanism. If one requires a meropenem formulation that is ready-to-use, there is value in being able to stabilize these compounds in frozen aqueous media.

[3] = stored at or below −20° C.; cited from earlier work

SMILES: CCC(C)CC(C)CCCCCCCCC(=O)N[C@H]1C[C@@H](O)[C@@H](NCCN)NC(=O)[C@@H]2[C@@H](O)CCN2C(=O)[C@H]([C@H](O)CCN)NC(=O)[C@H]([C@H](O)[C@@H](O)c2ccc(O)cc2)NC(=O)[C@@H]2C[C@@H](O)CN2C(=O)[C@H]([C@@H](C)O)NC1=O (some centres unmarked) [Caspofungin, Caspofungin acetate]
Time within which the infusion solution must be used ([1]; stored at ≦25° C.): ≤ 24 h
Time within which the infusion solution must be used ([1]; stored refrigerated at 2 to 8° C.): ≤ 48 h

Predicted shelf-life (t90) ([2]; at 0° C.): about 0.5 day
Predicted shelf-life ([2]; extrapolated to −25° C.): less than one
SMILES: C[C@@H](O)[C@H]1C(=O)N2C(C(=O)O)=C(S[C@@H]3CN[C@H](C(=O)N(C)C)C3)[C@H](C)[C@H]12 [Meropenem]

SMILES: CO/N=C(\C(=O)N[C@@H]1C(=O)N2C(C(=O)O)=C(CSc3nc(=O)c(=O)[nH]n3C)CS[C@H]12)c1csc(N)n1 [ceftriaxone sodium]
Time for which the frozen agent is stable [3]: at least 18 months
